Where a SMILES comes first, the peptide text is derived from it. Bridges are numbered along the chain shown (N, C = ends). [ ]: non-standard residue; d: D form. S5 = C=CCCC[C@](C)(N)C(=O)O
Key:
Solubility test in PBS = assay type: physicochemical; settings: PBS buffer, aqueous buffer, 1 mg in 50 µL, gradient diluted from 20 to 0.078125 mg mL^−1, OD at 600 nm (turbidity), plate reader
Procedure: Mix 1 mg ST‐CY14 or Csn‐B (Shanghai Sunny Biotech) in 50 µL PBS buffer, and then transfer 40 µL the suspension to a 96‐well plate. The suspension was gradient diluted from 20 to 0. 07 8125 mg mL^−1. OD values were measured at 600 nm on a Cytation 5 (Biotek, USA) plate reader. PBS was set as a blank control.

MDA-MB-231-GFP xenograft = experiment: MDA-MB-231-GFP orthotopic xenograft tumor model; assay type: in vivo, mouse
Description: Female BALB/c mice (4–5 weeks old, 16–18 g) and BALB/c mice (7–8 weeks old, 18–20 g) were provided by Shanghai Slake Experimental Animal Co., Ltd., and housed under specific pathogen‐free conditions for use in orthotopic xenograft tumor model experiments and bone metastasis tumor model experiments. The animal experiment was approved by the ethical committee of Shanghai University of Traditional Chinese Medicine (approval number: PZSHUTCM220627036).
To establish the bone metastasis tumor model, 1×10^5 cells were injected into the left ventricle of each mouse (7–8 weeks old), and surgery was monitored using a cardiac ultrasound instrument. The mice were randomly divided into three groups and treated with PBS (control group, n = 6), 5 mg kg^−1 ST‐CY14 (n = 6), and 10 mg kg^−1 ST‐CY14 (n = 6) Tumor cell metastasis was monitored using an in vivo imaging instrument (IVIS Spectrum, PerkinElmer, USA). by intraperitoneal injection of 20 mg kg^−1 D‐luciferin. The mice were treated with ST‐CY14 via intravenous injection using a 100 µL PBS solution every 2 days starting on the designated day after tumor cell injection. Bone tissue with MDA‐BoM‐1833 cell metastasis was obtained and stained for TRAP. The mice sera were collected and analyzed for BSP and β‐CTx levels using ELISA (Lengton, BPE10823, BPE10438). For the orthotopic xenograft tumor model, 3×10^6 cells were injected into the fourth pair of breast pads on the left side of the mouse (4–5 weeks old). The mice were treated with ST‐CY14 every two days once the tumor volume reached 30–50 mm^3, with the same groups as in the bone metastasis tumor model. The tumors were collected and stained for H&E, Ki‐67, and TUNEL assays, which were conducted by Wuhan Servicebio Technology Co., Ltd. Major organs (heart, liver, spleen, lung, and kidney) were also collected for H&E analysis by Wuhan Servicebio Technology Co., Ltd. The Transcriptome and LC/MS targeted lipid metabolome were sequenced by OE Biotech, Inc., Shanghai, China. […]

MDA-MB-231 cells = experiment: Western blot of Nur77, CD36 and FABP4; assay type: cell-based
Procedure: MCF7 and MDA‐MB‐231 cells were treated with various concentrations of peptide. The cells were then collected and lysed in NP40 lysis buffer. Total protein was quantified using a BCA assay kit (Beyotime, P0010S). The proteins were separated by SDS‐PAGE and transferred onto a PVDF membrane. The PVDF membrane was blocked in TBST containing 5% non‐fat milk, and then incubated with primary antibodies overnight at 4 °C. Subsequently, membranes were incubated with horseradish peroxidase‐conjugated antirabbit or antimouse IgG secondary antibody for 1 h at room temperature. The membranes were analyzed by a Tanon‐5200 Multi Gel Imaging Analysis System (Tanon) and quantified by ImageJ software.

MCF7 cells = experiment: Energy metabolism analysis (Seahorse OCR); assay type: cell-based, human; settings: MCF7, 24 h treatment, n = 3
Procedure: Cell energy metabolism analysis was conducted using a Seahorse cell energy metabolism analyzer (Agilent, USA). In brief, 8000 cells were seeded per well in a 96‐well XF96 plate (Agilent, 103794‐100) and cultured overnight. Subsequently, the cells were treated with various concentrations of peptides for 24 h. To prepare for metabolic stress injections, cartridge plates (Agilent, w15023) were hydrated with H2O for at least 12 h at 37 °C before the assay. 1 h before detection, the medium in each well was replaced with 180 µL XF calibrant solution (Agilent, 100840‐000), Afterward, the cell plate was replaced with 180 µL XF DMEM (Agilent, 103575‐100) with glucose (1 × 10^−2 M) (Agilent, 103577‐100), pyruvate (1 × 10^−3 M) (Agilent, 103578‐100) and glutamine (2 × 10^−3 M) (Agilent, 103579‐100) and the mixture was incubated in a CO2‐free incubator at 37 °C for 1 h. Then, 20 µL basic medium, 22 µL 1.5 × 10^−4 M oligomycin, 25 µL 1.5 × 10^−4 M FCCP, and 27 µL 5 × 10^−5 M ROT/AA (Agilent, 10315‐100) were added to wells A, B, C, and D, respectively, of the cartridge plates. The assay was carried out according to the manufacturer's instructions, and the OCR was reported in picomoles per min. The results were normalized to the cell number determined by the CCK‐8 assay.

α-chymotrypsin [1] = experiment: Protease stability in α-chymotrypsin solution; assay type: in vitro ADME; settings: α-chymotrypsin solution; α-chymotrypsin 0.5 ng µL^−1 in PBS (5 × 10^−2 M, 2 × 10^−3 M CaCl2, pH 7.4); 100 µL of 1 × 10^−3 M peptide + 1 mL enzyme; room temperature; 5-480 min; quenched with 1 M HCl; analytical HPLC at 214 nm
Procedure: (§1) The peptides were dissolved in PBS (pH 7.4) to a final concentration of 1 × 10^−3 M. α‐Chymotrypsin was dissolved in PBS (5 × 10^−2 M, containing 2 × 10^−3 M CaCl2, pH 7.4) to a final concentration of 0.5 ng µL^−1. Subsequently, 100 µL peptides were incubated with α‐chymotrypsin (1 mL) at room temperature, and 100 µL of the digestion mixture was collected at different times (5/10/20/30/60/120/240/480 min) and added to a centrifuge tube containing 20 µL of 1 M HCl to quench the enzymatic reaction. The solution of α‐Chymotrypsin peptide fragments was monitored by analytical HPLC to determine the fraction of protease degradation at 214 nm.

α-chymotrypsin [2] = target: α-chymotrypsin (Bos taurus, UniProt P00766); experiment: Protease stability in α-chymotrypsin solution; assay type: in vitro ADME; settings: α-chymotrypsin, PBS pH 7.4, room temperature
Procedure: as §1

C[C@@H](O)[C@@H]1NC(=O)[C@H](CCCNC(=N)N)NC(=O)[C@H](CCCNC(=N)N)NC(=O)[C@@](C)(NC(=O)[C@H](Cc2ccccc2)NC(=O)CNC(=O)[C@H](CCCCN)NC(=O)[C@H](CS)NC(=O)CNC(=O)[C@H](CCC(=O)O)NC(=O)[C@@H](N)CS)CCCC=CCCC[C@@](C)(C(=O)N[C@@H](CCCNC(=N)N)C(=O)N[C@@H](Cc2ccc(O)cc2)C(=O)N[C@@H](Cc2ccc(O)cc2)C(=O)NCC(=O)N[C@@H](CCCNC(=N)N)C(=O)N[C@@H](CCCCN)C(=O)N[C@@H](CCCCN)C(=O)N[C@@H](CCCNC(=N)N)C(=O)N[C@@H](CCCNC(=N)N)C(=O)N[C@@H](CCC(N)=O)C(=O)N[C@@H](CCCNC(=N)N)C(=O)N[C@@H](CCCNC(=N)N)C(=O)N[C@@H](CCCNC(=N)N)C(N)=O)NC1=O [ST-CY14] (H-CEGCKGF[S5]RRT[S5]RYYGRKKRRQRRR-NH2; staple 8-12)
solubility (Solubility test in PBS): > 20 mg/mL | Body weight loss and signs of organ toxicity (MDA-MB-231-GFP xenograft; 5 and 10 mg kg^−1, tail vein, once every two days, thirty days, H&E of major organs): without significant body weight loss (Figure 6c) or other signs of organ toxicity | Nur77, CD36 and FABP4 protein levels in tumors (Western blot) (MDA-MB-231-GFP xenograft; MDA-MB-231-GFP tumors): effectively increased Nur77 protein levels, and decreased CD36 and FABP4 protein levels | Ki-67, H&E and TUNEL analysis of tumor sections (MDA-MB-231-GFP xenograft; compared with the control group, n = 3): reduced tumor cell proliferation, increased necrosis area and apoptosis | CD36 and FABP4 protein expression (immunoblot) (MDA-MB-231 cells): inhibited the protein expression of CD36 and FABP4 | Nur77 protein expression (immunoblot) (MDA-MB-231 cells): increase in Nur77 expression | Oxygen consumption rate (OCR) (MCF7 cells): significantly reduced | half-life at 90.9 µM (α-chymotrypsin [1]): 1.46 h | Improvement of proteolytic half-life versus T-CY14 (α-chymotrypsin [2]): seventeen‐fold improvement

— PMC11234460, “In Silico Discovery of Stapled Peptide Inhibitor Targeting the Nur77‐PPARγ Interaction and Its Anti‐Breast‐Cancer Efficacy” (Advanced Science, 2024)
